In patent publication US12030903B2, “Antiviral compounds” (Gilead Sciences, Inc., priority 2020, dated 2024):
Where two headings read alike, the source gives them in different places.

What was measured:
[1] = system: Human hepatocarcinoma 7 (Huh7) cells; assay: Huh-7 CC50 (CellTiter Glo viability); format: cell-based; conditions: 48 hours
Procedure, shortened: (§1)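 Huh7 cells in 10% FCS DMEM plated at 1-2×10^4 per well in triplicate with graded compound doses, 0.25% DMSO throughout. Viability after 48 hours by CellTiter Glo luminescence, normalized to no-compound and no-cell controls; CC50 from curve fitting.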

RSV strain A2 = assay: RSV HEp-2 EC50 (infectious cytopathic cell protection assay); format: cell-based, RSV strain A2; HEp-2 cells; conditions: read-out: RSV Hep-2 EC50
Procedure, shortened: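 HEp-2 cells (50,000/mL) infected with titered RSV stock, added onto compound in 3-fold serial dilutions; 4 days at 37 °C. Cell viability read by CellTiter-Glo luminescence; percent inhibition of virus-induced cytopathic effect derived from remaining viability against 0% and 100% inhibition controls.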

[2] = system: Dengue serotype 2 New Guinea C (NGC) strain; assay: DENV-2 Huh-7 EC50 (qPCR of viral RNA in infected Huh7 cells); format: cell-based; conditions: MOI=0.1, 48 hours
Procedure, shortened: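 Huh7 cells were infected 2 h at 37 °C with DENV-2 NGC at MOI 0.1, then plated with graded compound doses (0.25% DMSO) in triplicate for 48 h. Viral RNA was quantified by duplex TaqMan qPCR against GAPDH. EC50 was normalized to positive and no-compound controls.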

uninfected HEp-2 cells = assay: HEp-2 CC50 (cytotoxicity in uninfected HEp-2 cells); format: cell-based; conditions: 4 days, CellTiter Glo
Method: (§2) Instead, an uninfected cell mixture at the same density is added at 20 uL/well to plates containing prediluted compounds, also at 100 nL/sample. Assay plates are then incubated for 4 days followed by a cell viability test using the same CellTiter Glo reagent addition and measurement of luminescent readouts. Untreated cell and cells treated at 2 μM puromycin (Sigma, St. Louis, MO) serve as 100% and 0% cell viability control, respectively.

[3] = system: Dengue 2, New Guinea strain (NGC); assay: DENV-2 moDC EC50 (qPCR of viral RNA in infected moDCs); format: cell-based, New Guinea strain (NGC); human moDCs; conditions: human moDCs infected with Dengue 2 NGC, MOI=0.1, 48 hours
Method: Example 82. DENV-2 moDC EC50
Human monocyte-derived dendritic cells (moDCs) were derived from CD14+ monocytes (AllCells) cultured in Human Mo-DC Differentiation medium containing GM-CSF and IL-4 (Miltenyi Biotec). On day 7, moDCs were harvested by mechanical disruption, washed and suspended in serum-free RPMI. moDCs were infected with Vero-derived Dengue 2, New Guinea strain (NGC) at a MOI=0.1 for two hours in serum-free RPMI with gentle agitation at 37° C. Cells were washed and resuspended in 10% serum-containing RPMI (Gibco, supplemented with sodium pyruvate, NEAA, Penicillin-Streptomycin). […] were plated in triplicate in 96-well plates with compounds dispensed at graded doses (Hewlett-Packard D300 Digital Dispenser). All wells were normalized to 0.25% DMSO. At 48 hours, cells were washed with 1×PBS and all supernatants removed. Total RNA was extracted using RNEasy 96 plates (Qiagen) and used to generate first-strand cDNA using XLT cDNA 5× Supermix (QuantaBio). cDNA was used as a template in a Taqman qPCR duplex reaction specific to DENV2 viral and GAPDH gene expression. EC50 values were determined using Prism Graphpad software, with normalization to a positive control and no compound negative control wells.

[4] = system: Human monocyte-derived dendritic cells (moDCs); assay: moDC CC50 (CellTiter Glo viability); format: cell-based; conditions: uninfected moDCs, 48 hours
Method: (§3) Human monocyte-derived dendritic cells (moDCs) were derived from CD14+ monocytes (AllCells) cultured in Human Mo-DC Differentiation medium containing GM-CSF and IL-4 (Miltenyi Biotec). On day 7, moDCs were harvested by mechanical disruption, washed and cultured in triplicate at […] cells/well in 96-well plates with compounds dispensed at graded doses (Hewlett-Packard D300 Digital Dispenser). All wells were normalized to 0.25% DMSO. After 48 hours, CellTiter Glo (Promega) was added and incubated for 10 minutes at room temp before reading on a luminometer. % viability curves were calculated against no compound and no cell control wells. CC50 values were determined using Prism Graphpad software.

[5] = Huh-7 CC50 (CellTiter Glo viability); format: cell-based, Human; conditions: human, Huh7 hepatocarcinoma cells
Procedure, shortened: as §1

[6] = HEp-2 CC50 (cytotoxicity in uninfected HEp-2 cells); format: cell-based; conditions: human, CellTiter Glo
Method: as §2

[7] = moDC CC50 (CellTiter Glo viability); format: cell-based, Human; conditions: human, uninfected moDCs
Method: as §3

[8] = HEp-2 cells infected with RSV A2, 4 days, Cell TiterGlo
[9] = Huh7 cells infected with Dengue serotype 2 NGC
[10] = human respiratory syncytial virus, HEp-2, 96 h
[11] = Dengue virus, DENV2, Huh-7, Huh7 cells infected with Dengue serotype 2 NGC

SMILES	CC50 [1] [nM]	EC50 (RSV strain A2; [8]) [nM]	EC50 [2, 9] [nM]	CC50 (uninfected HEp-2 cells) [nM]	EC50 [3] [nM]	CC50 [4] [nM]	CC50 at 48 h [5] [nM]	EC50 (RSV strain A2; [10]) [nM]	EC50 [2, 11] [nM]	CC50 at 4 days [6] [nM]	CC50 at 48 h [7] [nM]	EC50 ([3]; Dengue virus) [nM]
CCC(=O)O[C@H]1[C@H](c2ccc3c(N)ncnn23)O[C@](CF)(COP(=O)(N[C@@H](C)C(=O)OC)Oc2ccccc2)[C@H]1OC(=O)CC (stereo partly drawn) [Example 33, (2R,3S,4S,5S)-5-(4-aminopyrrolo[2,1-f][1,2,4]triazin-7-yl)-2-(fluoromethyl)-2-((((((S)-1-methoxy-1-oxopropan-2-yl)amino)(phenoxy)phosphoryl)oxy)methyl)tetrahydrofuran-3,4-diyl dipropionate]	> 25000	1220	811	43300	–	–	–	–	–	–	–	–
CCOC(=O)[C@H](C)NP(=O)(OC[C@@]1(CF)O[C@@H](c2ccc3c(N)ncnn23)[C@H](OC(=O)CC)[C@@H]1OC(=O)CC)Oc1ccccc1 (stereo partly drawn) [Example 25, (2R,3S,4S,5S)-5-(4-aminopyrrolo[2,1-f][1,2,4]triazin-7-yl)-2-((((((S)-1-ethoxy-1-oxopropan-2-yl)amino)(Phenoxy)phosphoryl)oxy)methyl)-2-(fluoromethyl) tetrahydrofuran-3,4-diyl dipropionate]	> 25000	919	291	70000	213	–	–	–	–	–	–	–
C[C@H](NP(=O)(OC[C@@]1(CF)O[C@@H](c2ccc3c(N)ncnn23)[C@H](O)[C@@H]1O)Oc1ccccc1)C(=O)OCC(C)(C)C(F)(F)F (single isomer, unassigned) [Example 55]	> 25000	150	611	> 100000	103	4180	–	–	–	–	–	–
CCOC(=O)[C@H](C)NP(=O)(OC[C@@]1(CF)O[C@@H](c2ccc3c(N)ncnn23)[C@H](OC(C)=O)[C@@H]1OC(C)=O)Oc1ccccc1 (stereo partly drawn) [Example 21, (2R,3S,4S,5S)-5-(4-aminopyrrolo[2,1-f][1,2,4]triazin-7-yl)-2-((((((S)-1-ethoxy-1-oxopropan-2-yl)amino)(phenoxy)phosphoryl)oxy)methyl)-2-(fluoromethyl)tetrahydrofuran-3,4-diyl diacetate]	> 25000	1780	3060	> 100000	1040	> 17300	–	–	–	–	–	–
C[C@H](NP(=O)(OC[C@@]1(CF)O[C@@H](c2ccc3c(N)ncnn23)[C@H](O)[C@@H]1O)Oc1ccccc1)C(=O)OCC(C)(C)C(F)(F)F (single isomer, unassigned) [Example 54]	> 25000	180	409	> 100000	241	3260	–	–	–	–	–	–
CCOC(=O)[C@H](C)NP(=O)(OC[C@@]1(CF)O[C@@H](c2ccc3c(N)ncnn23)[C@H](O)[C@@H]1O)Oc1ccc(C(C)(C)C)cc1 (single isomer, unassigned) [Example 49]	> 25000	225	334	> 100000	–	–	–	–	–	–	–	–
CCCCOC(=O)[C@H](C)N[P@](=O)(OC[C@@]1(CF)O[C@@H](c2ccc3c(N)ncnn23)[C@H](O)[C@@H]1O)Oc1ccccc1 (single isomer, unassigned) [Example 46]	–	–	–	–	–	–	10200	236	386	37100	3350	158
CC(C)COC(=O)[C@H](C)NP(=O)(OC[C@@]1(CF)O[C@@H](c2ccc3c(N)ncnn23)[C@H](O)[C@@H]1O)Oc1ccccc1 (stereo partly drawn) [Example 70, isobutyl ((((2R,3S,4R,5S)-5-(4-aminopyrrolo[2,1-f][1,2,4]triazin-7-yl)-2-(fluoromethyl)-3,4-dihydroxytetrahydrofuran-2-yl)methoxy)(phenoxy)phosphoryl)-L-alaninate]	–	–	–	–	–	–	10600	212	245	69400	3570	190
C[C@H](NP(=O)(OC[C@@]1(CF)O[C@@H](c2ccc3c(N)ncnn23)[C@H](O)[C@@H]1O)Oc1ccccc1)C(=O)OC1CCCCC1 (stereo partly drawn) [Example 14, cyclohexyl ((((2R,3S,4R,5S)-5-(4-aminopyrrolo[2,1-f][1,2,4]triazin-7-yl)-2-(fluoromethyl)-3,4-dihydroxytetrahydrofuran-2-yl)methoxy)(phenoxy)phosphoryl)-L-alaninate]	–	–	–	–	–	–	> 25000	187	205	> 100000	> 7760	165
C[C@H](NP(=O)(OC[C@@]1(CF)O[C@@H](c2ccc3c(N)ncnn23)[C@H](O)[C@@H]1O)Oc1ccccc1)C(=O)OCC(C)(C)C (stereo partly drawn) [Example 3, neopentyl ((((2R,3S,4R,5S)-5-(4-aminopyrrolo[2,1-f][1,2,4]triazin-7-yl)-2-(fluoromethyl)-3,4-dihydroxytetrahydrofuran-2-yl)methoxy)(phenoxy)phosphoryl)-L-alaninate]	–	–	–	–	–	–	> 25000	77	92	> 100000	> 11100	156
CC(=O)O[C@H]1[C@H](c2ccc3c(N)ncnn23)O[C@](CF)(COP(=O)(N[C@@H](C)C(=O)OC2CCCCC2)Oc2ccccc2)[C@H]1OC(C)=O (stereo partly drawn) [Example 15, (2R,3S,4S,5S)-5-(4-aminopyrrolo[2,1-f][1,2,4]triazin-7-yl)-2-((((((S)-1-(cyclohexyloxy)-1-oxopropan-2-yl)amino)(Phenoxy)phosphoryl)oxy)methyl)-2-(fluoromethyl)tetrahydrofuran-3,4-diyl diacetate]	> 25000	1460	1630	> 50000	–	–	–	–	–	–	–	–
CCOC(=O)[C@H](C)NP(=O)(OC[C@@]1(CF)O[C@@H](c2ccc3c(N)ncnn23)[C@H](O)[C@@H]1O)Oc1ccc(C(C)(C)C)cc1 (single isomer, unassigned) [Example 48]	15400	215	390	30200	–	–	–	–	–	–	–	–
CCCCOCCOC(=O)[C@H](C)NP(=O)(OC[C@@]1(CF)O[C@@H](c2ccc3c(N)ncnn23)[C@H](O)[C@@H]1O)Oc1ccccc1 (stereo partly drawn) [Example 42, 2-butoxyethyl ((((2R,3S,4R,5S)-5-(4-aminopyrrolo[2,1-f][1,2,4]triazin-7-yl)-2-(fluoromethyl)-3,4-dihydroxytetrahydrofuran-2-yl)methoxy)(phenoxy)phosphoryl)-L-alaninate]	–	–	–	–	–	–	21100	860	667	> 100000	5330	258
C[C@H](NP(=O)(OC[C@@]1(CF)O[C@@H](c2ccc3c(N)ncnn23)[C@H](O)[C@@H]1O)Oc1ccccc1)C(=O)OC1CCC1 (stereo partly drawn) [Example 71, cyclobutyl ((((2R,3S,4R,5S)-5-(4-aminopyrrolo[2,1-f][1,2,4]triazin-7-yl)-2-(fluoromethyl)-3,4-dihydroxytetrahydrofuran-2-yl)methoxy)(phenoxy)phosphoryl)-L-alaninate]	–	–	–	–	–	–	13000	290	298	> 100000	8800	143
